Data on 13 compounds can be found in PMC10711620 (Frontiers in Pharmacology, 2023).

Read-outs that look alike come from different tables or passages of the source. Where only a bound is given, the exact number is not on record here.

The subject of test [1] is blood platelets. Description: ADP-induced blood platelet aggregation in platelet-rich plasma. The class given is cell-based. Particulars: Homo sapiens; for inhibition at 50 µg/mL: 50 μg/mL, ADP as agonist. Here is the method: (§1) The blood samples under examination contained a normal range of blood platelets, ranging from 2.15 × 10^5 to 3.41 × 10^5 cells/μl. Platelet-rich plasma (PRP) was prepared by differentially centrifuging whole blood according to the method described earlier ([Kolodziejczyk-Czepas et al., 2021]). Subsequently, freshly obtained PRP samples (495 μL) were pre-incubated for 15 min at 37°C with the tested analytes (5 μL). These mixtures were then transferred into Chrono-Log 490 aggregometer cuvettes (Havertown, United States). Platelet aggregation measurements were conducted after stimulating the samples with either ADP (a final concentration of 10 μM) or collagen (a final concentration of 2 μg/mL), following the manufacturer’s instructions.

Test [2] deals with human plasma. Description: Prothrombin time (PT) in blood plasma. The class given is biochemical. Particulars: mean ± SE, n = 12. The procedure:
When determining the hemostatic parameters, stock solutions of the P. spinosa flower extracts (10 mg/mL) were prepared in 30% DMSO. […] The studies mixed 5 µL of the extracts with 495 µL of blood plasma or thrombin solution. Control samples were untreated with the extracts; however, they contained a vehicle for the plant preparations, i.e., DMSO.
(Budapest, Hungary), according to the laboratory protocols delivered by the manufacturer. […] Control samples were prepared using blood plasma untreated with the extracts.

Test [3] deals with human plasma. Briefly: Activated partial thromboplastin time (APTT) in blood plasma. In kind it is biochemical. The settings on record: mean ± SE, n = 12. Here is the method:
(§2) When determining the hemostatic parameters, stock solutions of the P. spinosa flower extracts (10 mg/mL) were prepared in 30% DMSO. DMSO concentrations in working solutions of the tested extracts (0.1, 0.5 and 5 mg/mL) were 15%. The studies mixed 5 µL of the extracts with 495 µL of blood plasma or thrombin solution. Control samples were untreated with the extracts; however, they contained a vehicle for the plant preparations, i.e., DMSO. The effect of DMSO on the investigated parameters was excluded in preliminary tests. All experiments used argatroban, a reference anticoagulant drug, as a positive control.
Thrombin (TT), prothrombin (PT) and the activated partial thromboplastin time (APTT) were measured in blood plasma using a Kselmed K-3002 Optic coagulometer (Kselmed, Grudziadz, Poland) and reagents purchased from Diagon Kft. (Budapest, Hungary), according to the laboratory protocols delivered by the manufacturer. […] Control samples were prepared using blood plasma untreated with the extracts.

Test [4] has as its system human plasma. Description: Thrombin time (TT) in blood plasma. The class given is biochemical. The settings on record: mean ± SE, n = 12. The procedure:
as §2
Thrombin (TT), prothrombin (PT) and the activated partial thromboplastin time (APTT) were measured in blood plasma using a Kselmed K-3002 Optic coagulometer (Kselmed, Grudziadz, Poland) and reagents purchased from Diagon Kft. (Budapest, Hungary), according to the laboratory protocols delivered by the manufacturer. Before the assays, the blood plasma samples were pre-incubated with the examined extracts at the final 1–50 μg/mL concentration for 15 min at 37°C. Control samples were prepared using blood plasma untreated with the extracts.

Test [5] concerns the target T1, thrombin (Bos taurus, UniProt P00735).
T1 construct: comprises two polypeptide chains: the light chain, formed by 36 amino acids, and the heavy chain, which has 259 amino acids; purchased Biomed (Lublin, Poland)
More on the design: method as in Liu et al. (2010). Particulars: ref Liu et al. (2010); read-out: IC50, thrombin inhibition in optimized TT assay; cited from earlier work.

The subject of test [6] is thrombin. Details: method as in Wei et al. (2019). The settings on record: ref Wei et al. (2019); read-out: IC50, inhibition of proteolytic activity of thrombin; cited from earlier work.
The subject of test [7] is blood platelets. Description: Collagen-induced blood platelet aggregation in platelet-rich plasma. In kind it is cell-based. Particulars: Homo sapiens, 5 μg/mL. The procedure:
as §1

Test [8] concerns the target T1, thrombin. Briefly: Amidolytic activity of thrombin, chromogenic substrate S-2238. The settings on record: read-out: IC50, thrombin-inhibitory efficiency in the amidolytic tests (converted). In kind it is biochemical. Here is the method:
When determining the hemostatic parameters, stock solutions of the P. spinosa flower extracts (10 mg/mL) were prepared in 30% DMSO. DMSO concentrations in working solutions of the tested extracts (0.1, 0.5 and 5 mg/mL) were 15%. The studies mixed 5 µL of the extracts with 495 µL of blood plasma or thrombin solution. Control samples were untreated with the extracts; however, they contained a vehicle for the plant preparations, i.e., DMSO.
The thrombin enzyme, purchased from Biomed (Lublin, Poland), was diluted with 0.05 M Tris-buffered saline (TBS), pH 7.4, to the concentration of 0.75 U/mL, and pre-incubated with the examined extracts at the final concentration of 1–50 μg/mL for 10 min, at 37°C. In control samples, 20% DMSO instead of the extracts was used. The measurements were conducted using a kinetic protocol, with absorbance recorded at 415 nm, every 10 s, for 15 min. The reaction mixture comprised 280 µL of thrombin (pre-incubated with the extracts or control/untreated enzyme) and 40 µL of 3 mM chromogenic substrate Chromogenix S-2238 purchased from Instrumentation Laboratory (Bedford, MA, United States of America). Thrombin amidolytic activity was estimated using the BMG Labtech software based on the maximal velocity of the reaction (Vmax). The assays were performed using 96-well microplates and the BMG Labtech SpectroStar Nano spectrophotometer (BMG LABTECH, Offenburg, Germany).

Test [9] has as its target T2, human thrombin (Homo sapiens, UniProt P00734).
T2 construct: comprises two polypeptide chains: the light chain, formed by 36 amino acids, and the heavy chain, which has 259 amino acids; purchased Sigma-Aldrich (St. Louis, MO, United States)
Description: Circular dichroism spectra of thrombin. Particulars: thrombin 15 μg/mL, compounds from 1 μg/mL, 37°C. The procedure: Each spectrum was the average of three repetitions. Human thrombin was used at a 15 μg/mL concentration in 10 mM phosphate buffer (pH = 7.4). In determining circular dichroism spectra, stock solutions of P. spinosa flower components (10 mg/mL) in 10% tetrahydrofuran were initially prepared. The final concentration of tetrahydrofuran in the sample was less than 0.05%. The selected extract components in phosphate buffer without thrombin at the concentrations used in the experiments were used as a baseline for thrombin/extract complexes spectra.
A general note: Circular dichroism is the unequal absorption of left and right circularly polarised light.

Compound `O=c1c(O[C@@H]2O[C@@H](CO)[C@H](O)[C@H]2O)c(-c2ccc(O)c(O)c2)oc2cc(O)cc(O)c12` [AV, Quercetin 3-O-α-L-arabinofuranoside] came in with an inhibition at 50 µg/mL in test [1] not above 15%. Consider `CC1CNc2c(cccc2S(=O)(=O)N[C@@H](CCCNC(=N)N)C(=O)N2CC[C@@H](C)C[C@@H]2C(=O)O)C1` (stereo partly shown) [Argatroban], for which the “Clothing times PT” value in test [2] (0.5 µg/mL) was 134.01 ± 1.50 % of the control/untreated human plasma; in test [2] (5 µg/mL) it was 562.65 ± 12.69 % of the control/untreated human plasma; in [2] (10 µg/mL), 821.54 ± 46.95 % of the control/untreated human plasma. For the same compound, the entries for the “Clothing times APTT” value in test [3] (0.5 µg/mL), in test [3] (5 µg/mL) and in test [3] (10 µg/mL) were 202.58 ± 2.32 % of the control/untreated human plasma, 423.72 ± 7.83 % of the control/untreated human plasma and “No clot”, respectively. Moreover, the “Clothing times TT” value is on record as 974.60 ± 27.50 % of the control/untreated human plasma in test [4] (0.5 µg/mL), “No clot” in test [4] (5 µg/mL) and “No clot” in test [4] (10 µg/mL). Consider `O=c1c(O[C@@H]2O[C@H](CO)[C@H](O)[C@H](O)[C@H]2O)c(-c2ccc(O)c(O)c2)oc2cc(O)cc(O)c12` [HY, Quercetin 3-O-β-D-galactopyranoside], for which, in [5], the IC50 was more than 1000 µM. In the case of `O=c1c(O[C@@H]2O[C@H](CO)[C@@H](O)[C@H](O)[C@H]2O)c(-c2ccc(O)c(O)c2)oc2cc(O)cc(O)c12` [IQ, Quercetin 3-O-β-D-glucopyranoside], the IC50 in test [6] was 28.8 µM. Take `COc1ccc2c(c1)c(CC(=O)O)c(C)n2C(=O)c1ccc(Cl)cc1` [Indomethacin]: the inhibition at 5 µg/mL in [7] was approximately 86%; in [1] (5 μg/mL, ADP), approximately 23%. On to `O=c1c(O[C@@H]2O[C@@H](CO)[C@H](O)[C@H]2O)c(-c2ccc(O)cc2)oc2cc(O)cc(O)c12` [JU, Kaempferol 3-O-α-L-arabinofuranoside], for which the inhibition at 50 µg/mL in test [1] is not above 15%. As for `O=c1c(O)c(-c2ccc(O)cc2)oc2cc(O)cc(O)c12` [KA, Kaempferol], the IC50 in test [8] was 283 µM; in test [5] it was 109 µM. As for `Oc1cc(O)c2c(c1)O[C@@]1(c3ccc(O)c(O)c3)Oc3cc(O)c4c(c3[C@@H]2[C@H]1O)O[C@H](c1ccc(O)c(O)c1)[C@H](O)C4` [PA2, proanthocyanidin A2], in test [8], the IC50 is 90.8 µM. Moreover, in test [9], the “Change of thrombin CD spectrum / secondary structure” value is “most apparent modification of the thrombin α-helix structure”. In the case of `C[C@@H]1O[C@@H](OC[C@H]2O[C@@H](Oc3c(-c4ccc(O)c(O)c4)oc4cc(O)cc(O)c4c3=O)[C@H](O)[C@@H](O)[C@@H]2O)[C@H](O)[C@H](O)[C@H]1O` [RT, Quercetin 3-O-(6″-O-α-L-rhamnopyranosyl)-β-D-glucopyranoside], the results for the IC50 in test [5] and in test [6] were more than 1000 µM and 34.1 µM, respectively. For the compound `C[C@@H]1O[C@@H](Oc2c(-c3ccc(O)cc3)oc3cc(O)cc(O)c3c2=O)[C@H](OC(=O)/C=C/c2ccc(O)cc2)[C@H](O)[C@H]1OC(=O)/C=C/c1ccc(O)cc1` [kaempferol-3-O-(2″,4″-di-E-p-coumaroyl)-rhamnoside], the IC50 in test [5] is 52 µM. Take `O=c1c(O[C@@H]2O[C@H](CO)[C@@H](O)[C@H](O)[C@H]2O)c(-c2ccc(O)cc2)oc2cc(O)cc(O)c12` [kaempferol-3-O-glucoside]: the IC50 in test [5] is more than 1000 µM. For `O=C(/C=C/c1ccc(O)cc1)O[C@H]1[C@H](Oc2c(-c3ccc(O)cc3)oc3cc(O)cc(O)c3c2=O)O[C@@H](CO)[C@@H]1O` [p-cJU, Kaempferol 3-O-(2″-O-E-p-coumaroyl)-α-L-arabinofuranoside], the concentration for half-maximal inhibition (IC50) in [8] is 67.8 µM.

With “kaempferol-3-O-(2″-di-E-p-coumaroyl)-rhamnoside”, in test [5], the IC50 is 83 µM.

What is called inhibition is the change of the read-out against control, counted positive when it falls. By IC50 is commonly meant the concentration at which inhibition is half-maximal.
